Patent US20020187514A1 (priority 1999, published 2002)

Columns and labels:
Assay type in all cases: binding
Neurokinin, NK3 (NKB) = conditions: 10^−5 M
Glutamate, AMPA Site = test: Glutamate, AMPA Site; [3H]AMPA; conditions: 10^−5 M
Adrenergic, Alpha 1B = Adrenergic, Alpha 1B (UniProt P15823); test: Adrenergic, Alpha 1B; [3H]-7-MeOxy-Prazosin
Sequence of Adrenergic, Alpha 1B (P15823 whole entry): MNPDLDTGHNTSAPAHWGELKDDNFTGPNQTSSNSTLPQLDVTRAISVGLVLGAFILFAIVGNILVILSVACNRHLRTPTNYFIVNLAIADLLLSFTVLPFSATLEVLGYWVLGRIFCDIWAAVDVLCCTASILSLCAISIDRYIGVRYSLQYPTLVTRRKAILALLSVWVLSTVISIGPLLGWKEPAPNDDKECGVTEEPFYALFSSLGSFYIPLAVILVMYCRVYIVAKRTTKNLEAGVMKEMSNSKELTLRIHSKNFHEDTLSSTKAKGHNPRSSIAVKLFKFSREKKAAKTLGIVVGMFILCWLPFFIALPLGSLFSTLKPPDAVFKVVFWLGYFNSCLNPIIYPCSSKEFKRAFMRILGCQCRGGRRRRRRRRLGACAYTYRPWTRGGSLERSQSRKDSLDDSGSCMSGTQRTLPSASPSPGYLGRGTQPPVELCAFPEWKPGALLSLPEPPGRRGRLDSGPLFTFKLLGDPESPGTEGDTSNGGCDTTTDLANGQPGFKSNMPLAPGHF

## COC(=O)[C@H]1[C@@H](OC(=O)c2ccccc2)C[C@@H]2CC[C@H]1N2C [cocaine]
Neurokinin, NK3 (NKB)
  Pass 1 (10^−5 M) % Inhibition: −15.24%
Glutamate, AMPA Site
  Pass 1 (10^−5 M) % Inhibition: −9.30%
Adrenergic, Alpha 1B
  Pass 1 (10^−5 M) % Inhibition: −6.30%
